# Test system: apt 32 (DNA, aptamer) AAAAAAAAAAAAGGGCACGTGTTGTCTCTCTGTGTCTCGTGCCC
# Test: lateral flow strip, competition with complementary strand
# Settings: 120 mM NaCl, 5 mM KCl, 200 mM MgCl2; 10 mM Tris pH 7.4, 5% methanol, room temperature; immobilised probe 2 competes; tested at 100 ng/mL
row,binding,Structure (SMILES)
1,no,C[C@H]1CCCC(=O)CCC/C=C/c2cc(O)cc(O)c2C(=O)O1
2,no,CCCC[C@@H](C)[C@@H](OC(=O)C[C@@H](CC(=O)O)C(=O)O)[C@H](C[C@@H](C)C[C@H](O)CCCC[C@@H](O)C[C@H](O)[C@H](C)N)OC(=O)C[C@@H](CC(=O)O)C(=O)O
3,no,C[C@@H]1Cc2c(Cl)cc(C(=O)N[C@@H](Cc3ccccc3)C(=O)O)c(O)c2C(=O)O1

# From publication PMC7076875 (2020)
